Data published in ChEMBL document CHEMBL1146441, “Naphthalenone and Phthalide Metabolites from Lachnum papyraceum 1” (J Nat Prod, 1997).
In brackets after ≈: the same amount, converted by molar mass. Activity calls are given as the source filed them. The calls are words filed in the database; no cut-off is given here.

How the values were obtained:
Micrococcus luteus = test: Antibacterial activity against Micrococcus luteus; assay type: functional
[1] = system: Enterobacter cloacae subsp. dissolvens; test: Antibacterial activity against Enterobacter dissolvens; assay type: functional
Rhizomucor miehei = test: Antifungal activity against Mucor miehei; assay type: functional
L1210 = test: Cytotoxicity against mouse L1210 cells after 48 hrs; assay type: functional, cell-based; conditions: L1210, 48 h
Penicillium chrysogenum = test: Antifungal activity against Penicillium notatum; assay type: functional
Paecilomyces variotii = test: Antifungal activity against Paecilomyces variotii; assay type: functional
Lepidium sativum = test: Phytotoxicity against Lepidium sativum assessed per disk; assay type: functional, organism-based

MIC (Micrococcus luteus) [µg/mL] | MIC [1] [µg/mL] | MIC (Rhizomucor miehei) [µg/mL] | MIC (Penicillium chrysogenum) [µg/mL] | MIC (Paecilomyces variotii) [µg/mL] | SMILES | IC50 (L1210) [µg/mL] | IC50 (Lepidium sativum) [µg] | Activity (Micrococcus luteus) | Activity [1] | Activity (Rhizomucor miehei) | Activity (Penicillium chrysogenum) | Activity (Paecilomyces variotii) | Activity (Lepidium sativum)
100 (≈ 450 µM) | 100 (≈ 450 µM) | 100 (≈ 450 µM) | 100 (≈ 450 µM) | 100 (≈ 450 µM) | COc1cc2c(c(O)c1C)C(=O)CCC2O (stereo unspecified) | 25 (≈ 112 µM) | 100 |  |  |  |  |  | 
 |  |  |  |  | COC(=O)c1c(OC)c(C)c(OCC=C(C)C)c2c1C(=O)OC2 | 25 (≈ 78 µM) |  | inactive | inactive | inactive | inactive | inactive | inactive
 |  |  |  |  | COc1c(C)c(OCC=C(C)C)c2c(c1C(=O)O)C(=O)OC2 | 50 (≈ 163 µM) |  | inactive | inactive | inactive | inactive | inactive | inactive
